Drawing on the OligoGym collection, this text covers target mRNA inhibition for 87 sequences.

Several values for one entry are separate records, joined by “and”; a condition that tells them apart may be missing. Equal entries are not always repeated. After the bases stand the sugars from the 5' end (letter, count) and the backbone: PS all phosphorothioate, else s phosphorothioate and o phosphodiester by linkage. Methylation of C is not given here. e = 2'-O-(2-methoxyethyl) (MOE); k = constrained ethyl (cEt); d = 2'-deoxy (DNA)

In the data set the target is IRF4. As to conditions: ASO.

“GACAGTGACTTGCATC (sugars kkdddddddddkdkdk, PS)”: the target mRNA inhibition (MM.1R, 1 µM) is -7%.
On to “AGTTGTAAATGAGTCG (sugars kkddddddddddkeke, PS)”, for which the target mRNA inhibition by setting is: (H929, 0.04 µM) 53% and 73%; (KMS11, 0.2 µM) 83% and 91%; (MM.1R, 0.074 µM) 28%; (MM.1R, 0.222 µM) 44%; (MM.1R, 0.666 µM) 65%; (MM.1R, 1 µM) 59%. For the same sequence, the target mRNA inhibition (MM.1R, 2 µM) came out at 81%.
For the sequence “CAAGCAGTGATGTCAG (sugars kkddddddddddkeke, PS)”, the target mRNA inhibition (MM.1R, 1 µM) was 20% and 26%.
As for “GCATTTTATCATCCGA (sugars kkkddddddddkekek, PS)”, for the setting “MM.1R, 1 µM”, the target mRNA inhibition was determined as 45%.
In the case of AGACAGATGACATGCT (sugars k3 d10 k3, PS), under “SK-MEL-28, 4 µM”, the target mRNA inhibition came out at 50%.
Consider CAAGACAAATCTTCTG (sugars k3 d10 k3, PS), for which the target mRNA inhibition (SK-MEL-28, 4 µM) worked out at 13%.
For CGTTCTCCCACACCAG (sugars k3 d10 k3, PS), the target mRNA inhibition (SK-MEL-28, 4 µM) was 48%.
On to GACCAGAACTAATGTC (sugars k3 d10 k3, PS), for which the target mRNA inhibition (MM.1R, 1 µM) is -27%.
Consider AATAAGATCCCACGAA (sugars k3 d10 k3, PS), for which the target mRNA inhibition (SK-MEL-28, 4 µM) amounted to 15%.
Still for that read-out and setting: the figure for ACTTACACCCAGAAGT (sugars k3 d10 k3, PS) is -10%.
Regarding GTGCTTGCCAAGCCTA (sugars k3 d10 k3, PS), the target mRNA inhibition (MM.1R, 1 µM) was 27% and 36%.
AAGTGTCTTCCACAAG (sugars k3 d10 k3, PS): where the note is “SK-MEL-28, 4 µM”, the target mRNA inhibition amounted to 54%.
Consider CAGAATGGCGAGTTGG (sugars k3 d10 k3, PS), for which the target mRNA inhibition (MM.1R, 1 µM) was 31%.
With CAGTAAGAGGGCAGTC (sugars k3 d10 k3, PS), the target mRNA inhibition (SK-MEL-28, 4 µM) came out at 50%.
Same read-out and setting: the figure for TCCCCGTATCAAAAAA (sugars k3 d10 k3, PS) is -12%.
Take ACAGTCCACTCCACCC (sugars k3 d10 k3, PS): the target mRNA inhibition (MM.1R, 1 µM) came out at 14%.
As for ATAAACACCTCAGCTG (sugars k3 d10 k3, PS), the target mRNA inhibition (SK-MEL-28, 4 µM) turned out to be 21%.
With “AGTATGAGAAACGGCC (sugars kkdddddddddkekek, PS)”, the target mRNA inhibition (MM.1R, 1 µM) was 3%.
On the same count and under the same terms, the figure for TTACGCTTATTTTTCC (sugars k3 d10 k3, PS) is 39%.
As for CGCATAGAGCCCGTCG (sugars k3 d10 k3, PS), the target mRNA inhibition (SK-MEL-28, 4 µM) came out at 53%.
Same read-out and setting: the figure for CTGCTTGAGGTTTTCC (sugars k3 d10 k3, PS) is 74%.
Turning to AGTGACTTGCATCCAT (sugars k3 d10 k3, PS), the target mRNA inhibition (MM.1R, 0.0625 µM) worked out at 10%; the target mRNA inhibition (MM.1R, 0.25 µM) turned out to be 28%; the target mRNA inhibition (MM.1R, 1 µM) was 67% and 58%; the target mRNA inhibition (MM.1R, 4 µM) amounted to 78%.
Consider ATTTTAAGGCCCTGTC (sugars k3 d10 k3, PS), for which the target mRNA inhibition (SK-MEL-28, 4 µM) amounted to 34%.
Turning to “TGTAGTATGAGAAACG (sugars k2 d9 e3 k2, PS)”, where the note is “MM.1R, 1 µM”, the target mRNA inhibition came to 7%.
As for ACGGACTGGAACATTG (sugars k3 d10 k3, PS), the target mRNA inhibition (MM.1R, 1 µM) was 38%.
As to TGCCGAACTCTCCGCC (sugars k3 d10 k3, PS), where the note is “SK-MEL-28, 4 µM”, the target mRNA inhibition came to 43%.
Consider GACCACAGTGAAGTCG (sugars k3 d10 k3, PS), for which, for the setting “SK-MEL-28, 4 µM”, the target mRNA inhibition amounted to 14%.
For GTATTTGTCGAGATCA (sugars k3 d10 k3, PS), the target mRNA inhibition (SK-MEL-28, 4 µM) turned out to be 59%.
Regarding GGACTCCGGGAGCCTG (sugars k3 d10 k3, PS), under “MM.1R, 1 µM”, the target mRNA inhibition was -8%.
As for ACCCACATCACTGTCT (sugars k3 d10 k3, PS), the target mRNA inhibition (SK-MEL-28, 4 µM) is 15%.
With CACTATGCCTGAACTG (sugars k3 d10 k3, PS), the target mRNA inhibition (SK-MEL-28, 4 µM) worked out at 10%.
With TTCATGTAAAGTCTGC (sugars k3 d10 k3, PS), the target mRNA inhibition (MM.1R, 1 µM) is 57% and 55%.
Still for that read-out and setting: the figure for GGAACTCCCGAGGGCA (sugars k3 d10 k3, PS) is 13%.
Same read-out and setting: the figure for ACCGAACACACCAGGT (sugars k3 d10 k3, PS) is -14%.
As to CCACGCGCGGAGGACC (sugars k3 d10 k3, PS), where the note is “SK-MEL-28, 4 µM”, the target mRNA inhibition is 19%.
Same read-out and setting: the figure for CTGAATTGTTACTAAA (sugars k3 d10 k3, PS) is 21%; for CAAAACAGTAAGAGGG (sugars k3 d10 k3, PS) it is 31%.
As to AGCAATTAGCTCTTCT (sugars k3 d10 k3, PS), the target mRNA inhibition (MM.1R, 1 µM) worked out at 11%.
With TAAAAGAGGTGCTAGG (sugars k3 d10 k3, PS), for the setting “SK-MEL-28, 4 µM”, the target mRNA inhibition was 27%.
In the case of AACTGCAGCACCGTGG (sugars k3 d10 k3, PS), the target mRNA inhibition (SK-MEL-28, 4 µM) was 45%.
As to “GGAAGTTTACACTGGA (sugars k3 d9 k3 e1, PS)”, the target mRNA inhibition (MM.1R, 0.074 µM) came out at 20%; the target mRNA inhibition (MM.1R, 0.222 µM) was 45%; the target mRNA inhibition (MM.1R, 0.666 µM) was found to be 77%; the target mRNA inhibition (MM.1R, 1 µM) was determined as 78%; the target mRNA inhibition (MM.1R, 2 µM) worked out at 91%.
Turning to AAGCAGTGATGTCAGG (sugars k3 d10 k3, PS), the target mRNA inhibition (MM.1R, 0.0625 µM) amounted to 8%; the target mRNA inhibition (MM.1R, 0.25 µM) turned out to be 25%; the target mRNA inhibition (MM.1R, 1 µM) was 66% and 65%; the target mRNA inhibition (MM.1R, 4 µM) worked out at 75%.
For the sequence GAATGAGGAAGCCGTT (sugars k3 d10 k3, PS), the target mRNA inhibition (SK-MEL-28, 4 µM) stood at 39%.
In the case of ATCAGAATGGCGAGTT (sugars k3 d10 k3, PS), where the note is “SK-MEL-28, 4 µM”, the target mRNA inhibition turned out to be 47%.
For CGCGGACGCACGGAGA (sugars k3 d10 k3, PS), where the note is “SK-MEL-28, 4 µM”, the target mRNA inhibition worked out at 19%.
In the case of ATACAAAACGGACTGG (sugars k3 d10 k3, PS), under “SK-MEL-28, 4 µM”, the target mRNA inhibition was determined as 15%.
For the sequence GTTCCAGGAGATATTA (sugars k3 d10 k3, PS), the target mRNA inhibition (SK-MEL-28, 4 µM) came out at 52%.
Consider CCGGAGTCAGTGCTGG (sugars k3 d10 k3, PS), for which the target mRNA inhibition (SK-MEL-28, 4 µM) was -7%.
The same measure, in the same setting: the figure for TAAGAAGCACTGGCAT (sugars k3 d10 k3, PS) is 26%.
Regarding CAAAGAGCTTGCAGGT (sugars k3 d10 k3, PS), the target mRNA inhibition (SK-MEL-28, 4 µM) was found to be 4%.
On to “GCAGTGATGTCAGGTT (sugars kkdddddddddkekek, PS)”, for which the target mRNA inhibition reads like this: (MM.1R, 0.074 µM) 14%; (MM.1R, 0.222 µM) 37%; (MM.1R, 0.666 µM) 60%; (MM.1R, 1 µM) 69%; (MM.1R, 2 µM) 81%.
With GAACAGTAACTTGACT (sugars k3 d10 k3, PS), the target mRNA inhibition (SK-MEL-28, 4 µM) amounted to 4%.
Consider GCCCATGAGTTGAAAG (sugars k3 d10 k3, PS), for which, where the note is “SK-MEL-28, 4 µM”, the target mRNA inhibition was determined as 32%.
For “AGTTCATGTAAAGTCT (sugars kddddddddddkekek, PS)”, the target mRNA inhibition (MM.1R, 1 µM) was 25% and 22%.
CTGTTAAGTCCCATCT (sugars k3 d10 k3, PS): the target mRNA inhibition (SK-MEL-28, 4 µM) is 54%.
Still for that read-out and setting: the figure for GACCAGGATTCGCCAT (sugars k3 d10 k3, PS) is 23%.
As to “TGTGCTTGCCAAGCCT (sugars kkdddddddddkekek, PS)”, under “MM.1R, 1 µM”, the target mRNA inhibition is 2% and 18%.
Regarding TACCTACAAGCAGTCA (sugars k3 d10 k3, PS), under “SK-MEL-28, 4 µM”, the target mRNA inhibition was 56%.
In the case of CTGCAGAACAGACGCG (sugars k3 d10 k3, PS), the target mRNA inhibition (SK-MEL-28, 4 µM) turned out to be 11%.
The same measure, in the same setting: the figure for TGGTAGGTCAAACTCC (sugars k3 d10 k3, PS) is -13%.
Regarding “CTGTTACCGATGCTTC (sugars kdddddddddkekeke, PS)”, where the note is “MM.1R, 1 µM”, the target mRNA inhibition was 2% and 24%.
Consider TCACATGATAAGGCAC (sugars k3 d10 k3, PS), for which, for the setting “MM.1R, 1 µM”, the target mRNA inhibition amounted to 19%.
Same read-out and setting: the figure for “CAGTGACTTGCATCCA (sugars k2 d9 e3 k2, PS)” is 28%.
As for GATGAGGGACCAGAAC (sugars k3 d10 k3, PS), the target mRNA inhibition (SK-MEL-28, 4 µM) amounted to 20%.
In the case of “CTTGATAAAGGCTGAA (sugars kddddddddddkekek, PS)”, the target mRNA inhibition (MM.1R, 1 µM) is 17%.
For GCCGTTCCTTTTCAGA (sugars k3 d10 k3, PS), for the setting “SK-MEL-28, 4 µM”, the target mRNA inhibition turned out to be 62%.
As to AACACGGGAATTTCCA (sugars k3 d10 k3, PS), the target mRNA inhibition (SK-MEL-28, 4 µM) stood at 73%.
On to “CAAGTGTCTAAAGTCC (sugars kkdddddddddkekek, PS)”, for which the target mRNA inhibition (MM.1R, 1 µM) is 15% and 6%.
Still for that read-out and setting: the figure for TGCCTTACCTGACAAG (sugars k3 d10 k3, PS) is 4%.
Take CTGGTTCGCGCTCCGG (sugars k3 d10 k3, PS): the target mRNA inhibition (SK-MEL-28, 4 µM) turned out to be 7%.
With CAGCACCGTGGTGCGA (sugars k3 d10 k3, PS), the target mRNA inhibition (MM.1R, 1 µM) is -27%.
AAACGAGTTGACACAG (sugars k3 d10 k3, PS): the target mRNA inhibition (SK-MEL-28, 4 µM) turned out to be 20%.
On the same count and under the same terms, the figure for TCATGATGTATACCAA (sugars k3 d10 k3, PS) is 65%; for TTATCTTCCCTTAGGA (sugars k3 d10 k3, PS) it is 28%; for TTGGAAAGACAAGTGC (sugars k3 d10 k3, PS) it is 15%.
For GAAGGATGGGACCGCC (sugars k3 d10 k3, PS), the target mRNA inhibition (SK-MEL-28, 4 µM) was 41%.
Same read-out and setting: the figure for TACTTAAGCAAGTGGA (sugars k3 d10 k3, PS) is 75% and 71%; for CCCCTCTCCAGGTGGC (sugars k4 d8 k4, PS) it is -1%.
AACAATACTGTAAGGG (sugars k3 d10 k3, PS): the target mRNA inhibition (SK-MEL-28, 4 µM) came out at 51%.
In the case of TTACCATTTTCACAAG (sugars k4 d8 k4, PS), the target mRNA inhibition (SK-MEL-28, 4 µM) amounted to 7%.
For the sequence TTACTGTTACCGATGC (sugars k3 d10 k3, PS), under “MM.1R, 1 µM”, the target mRNA inhibition is 26% and 35%.
Same read-out and setting: the figure for CAGAATGTTTCGACAT (sugars k3 d10 k3, PS) is 14%.
Take ATTACTGCTTGAGGTT (sugars k3 d10 k3, PS): the target mRNA inhibition (SK-MEL-28, 4 µM) is 62%.
On to TTGTGAAGCATCCTTT (sugars k3 d10 k3, PS), for which the target mRNA inhibition (SK-MEL-28, 4 µM) worked out at 63%.
With GAAGAAGGCACCTTCG (sugars k3 d10 k3, PS), the target mRNA inhibition (SK-MEL-28, 4 µM) was 25%.
For CACCATGGCACAGTCT (sugars k3 d10 k3, PS), the target mRNA inhibition (SK-MEL-28, 4 µM) was determined as 79%.
Regarding CTCTCCAGGTGGCTCA (sugars k4 d8 k4, PS), the target mRNA inhibition (SK-MEL-28, 4 µM) was determined as 12%.
